Measurements reported in US6225478A, “Iridoid derivatives and neovascularization inhibitors containing the same as active ingredient” (Tsumura & Co., priority 1999, dated 2001).

What was measured:
[1] = test system: human umbilical-vein endothelial cells (HUVEC); experiment: Tube Formation Assay (TFA) Test, HUVEC in collagen gel; format: cell-based; details: Homo sapiens, HUVEC, Tables 75-83; 0.32 mM sample solution; method as for Compounds 1 through 60; read-out: TFA Inhibition rate (%)
Procedure: Furthermore, the sample liquids of compounds used in the CPA and CMA tests were prepared in the manner described below. Firstly, after weighing out each compound, a calculated amount of DMSO was added. After dissolving the compound in the DMSO, phosphate buffered physiological saline (PBS (-)) was added to bring the sample concentration to 1 mg/ml in PBS (-). The amount of DMSO used to dissolve the compounds was adjusted in advance to that the concentration of DMSO at that time was 5%. The resulting liquids were diluted 10-fold with 5% DMSO-PBS (-) solution to prepare sample solutions having a concentration of 0.1 mg/ml. In the TFA test, 320 μl of the prepared 1 mg/ml sample solutions were removed followed by addition of 680 μl of PBS (-) to prepare samples having a concentration of […]. Moreover, 100 μl of this solution was removed followed by addition of 900 μl of PBS (-) to dilute 10-fold and prepare samples having a concentration of 1 μg/ml. P [Cell Proliferation Assay (CPA) Test]
To begin with, 8 volumes of Type 1-A cell matrix (manufactured by Gibco Co.), 1 volume of 10×M119, and 1 volume of reconstituted buffer [200 mM HEPES, 0.05 N sodium hydroxide, 260 mM sodium bicarbonate] were slowly mixed under cooling with ice while avoiding bubbling to form a collagen gel. This collagen gel was distributed in a NUNC 24-well plate at 310 μl/well followed by allowing to stand undisturbed for 2 hours at 37° C. to solidify the gel.
Next, the 7th subculture of HUVEC (1×10^5 cells/ml) obtained from the first generation in the same manner as above were disseminated at 500 μl/well. The cells were cultured for 2 hours at 37° C. to allow the cells to make contact with the collagen. After then removing the medium by aspiration, 50 μl of sample solution were added followed by addition of 310 μl/well of freshly prepared collagen gel and culturing for 1 hour and 10 minutes at 37° C. to solidify the double-layer gel.
1 ml/well of M-199 medium containing 20% FCS, 30 ng /ml of b-FGF and 0.1 μM PMA were added to the wells followed by culturing for 20 hours at 37° C. in the presence of 5% CO2.
Measurement of the lengths of the formed tubes was performed using the public domain NIH Image with a computer.
Evaluation was performed by calculating the inhibition rate (%) of tube formation according to the following formula.
Inhibition rate (%)=100-((formed tube length in presence of sample-formed tube length in presence of control (-))×100/(formed tube length in presence of control (+)-formed tube length in presence of control (-)))
(§1) Samples were prepared using the present compounds of Compound No. I-60 through I-315. More specifically, 32 μl of a 20 mM sample solution dissolved in dimethylsulfoxide (DMSO) were removed and brought to a volume of 1 ml with phosphate-buffered saline (PBS) to prepare a sample solution having a concentration of 0.32 mM (containing 3.2% DMSO).
The testing method used for these compounds was the same as that used for the compounds of Compound No. 1 through 60 previously described.

HUFEC = experiment: Cell Migration Assay (CMA) Test, inhibitory rate with control (-) correction; format: cell-based, human; details: Homo sapiens, 24 h, 125 μl of 0.32 mM sample solution in 4.0 ml medium, 80% or more = remarkable
Procedure: as §1
After disseminating the 7th subculture of […] obtained from the first generation at 4 ml/well (3.0×10^5 cells/well) in a collagen-coated 6-well plate (NUNC), the cells were cultured for 48 hours at 37° C. in the presence of 5% CO2. The cells reached nearly a completely confluent state as a result of this culturing.
A double-edged, disposable razor blade was divided into four sections, of which one of those sections was pinched between a pair of forceps. Using this piece of razor blade, the cell surface in the above confluent state was scraped off.
After washing the surface of the wells from which the cells had been scraped off with medium, 4.0 ml of fresh M199 (2+) medium were placed in the wells. 4.0 ml of M199 medium were added to the control (-) well.
125 μl of sample solution (0.32 mM, containing 3.2% dimethylsulfoxide) were added to the wells.
125 μl of PBS solution containing 3.2% dimethylsulfoxide were added to the control wells instead of sample. The cells were cultured for 24 hours at 37° C. in the presence of 5% CO2. After discarding the culture liquid, the cells were fixed for 30 minutes with methanol. Next, after […] the cells for 4 hours with Giemsa stain, the plates were washed with tap water and air dried.
Measurement of cell migration was performed by microscopically counting the number of cells that had newly migrated within the range of a 1 mm×1 mm block. […] The total number of cells counted in blocks 1 through 5 were then totaled to determine the overall total number of cells. Four fields were counted for each well.
Evaluation was performed determining the cell migration inhibitory rate (%) according to the following equation.
Inhibitory rate=100-((number of migrating cells to which sample was added-number of migrating cells of control (-))×100/(number of migrating cells of control (+)-number of migrating cells of control (-)))
If this inhibitory rate was 80% or more, cell migration was assessed as being remarkable.

| Compound | inhibition at 320 µM (stock) [1] [%] | inhibition at 320 µM (stock) (HUFEC) [%] |
| --- | --- | --- |
| COC(=O)C1=CO[C@@H](OC(=O)NCc2ccccc2)[C@H]2[C@@H]1CC[C@@H]2C [I-183] | 8.7 | 25.4 |
| COC(=O)C1=CO[C@@H](OC(=O)Nc2cccc(C(F)(F)F)c2)[C@@H]2C(C)=CC[C@H]12 [I-160] | 13.8 | 6.3 |
| COC(=O)C1=CO[C@@H](OC(=O)Nc2ccc(F)cc2F)[C@H]2[C@@H]1CC[C@@H]2C [I-256] | 4 | 5 |
| COC(=O)C1=CO[C@@H](OC(=O)Nc2ccc(F)cc2)[C@H]2[C@@H]1CC[C@@H]2C [I-264] | 29.2 | 6.7 |
| COC(=O)CNC(=O)O[C@@H]1OC=C(C(=O)OC)[C@H]2CC=C(C)[C@@H]12 [I-144] | 7.5 | 31.2 |
| COC(=O)C1=CO[C@@H](OC(=O)N2CCCCC2)[C@H]2[C@@H]1CC[C@@H]2C [I-216] | 3.7 | 9.4 |
| COC(=O)C1=CO[C@@H](OC(=O)NCc2ccc(Cl)cc2)[C@@H]2C(C)=CC[C@H]12 [I-109] | 7.2 | 21.5 |
| COC(=O)C1=CO[C@@H](OC(=O)NCCCN(C)C)[C@@H]2C(C)=CC[C@H]12 [I-105] | 5.6 | 14.9 |
| COC(=O)C1=CO[C@@H](OC(=O)NCc2ccc(Cl)c(Cl)c2)[C@H]2[C@@H]1CC[C@@H]2C [I-196] | 6.2 | 27.6 |
| COC(=O)C1=CO[C@@H](OC(=O)NCCc2ccccn2)[C@H]2[C@@H]1CC[C@@H]2C [I-182] | 9.6 | 3.9 |
| CNC(=O)O[C@@H]1OC=C(C(=O)OC)[C@H]2CC=C(CF)C12 (stereo in doubt) [I-314, (1S,4aS,7aR)-7-(fluoromethyl)-1-(methylcarbamoyloxy)-1,4a,5,7a-tetrahydrocyclopenta [c] pyrane-4-carboxylic acid methylester] | 9.4 | 47.2 |
| COC(=O)C1=CO[C@@H](OC(=O)NCc2ccc(S(N)(=O)=O)cc2)[C@@H]2C(C)=CC[C@H]12 [I-133] | 9.5 | 3.9 |
| COC(=O)C1=CO[C@@H](OC(=O)N2CCSCC2)[C@@H]2C(C)=CC[C@H]12 [I-114] | 6.8 | 9.4 |
| COC(=O)C1=CO[C@@H](OC(=O)NC(CO)CO)[C@@H]2C(C)=CC[C@H]12 [I-147] | 10.3 | 41 |
| COC(=O)C1=CO[C@@H](OC(=O)NCc2ccc(Cl)cc2)[C@H]2[C@@H]1CC[C@@H]2C [I-214] | 5.7 | 11.7 |
| CCNC(=O)O[C@@H]1OC=C(C(=O)OC)[C@H]2CC[C@H](C)[C@@H]12 [I-262] | 8.8 | 6.3 |
| COC(=O)C1=CO[C@@H](OC(=O)N(C)CCc2ccc(OC)c(OC)c2)[C@@H]2C(C)=CC[C@H]12 [I-122] | 9.1 | 10.3 |
| COC(=O)C1=CO[C@@H](OC(=O)NCc2ccco2)[C@H]2[C@@H]1CC[C@@H]2C [I-215] | 8.1 | 21.5 |
| COC(=O)C1=CO[C@@H](OC(=O)N2CCN(c3ccccc3F)CC2)[C@@H]2C(C)=CC[C@H]12 [I-149] | 8.7 | 7.5 |
| COC(=O)C1=CO[C@@H](OC(=O)NC(=O)c2ccccc2)[C@H]2[C@@H]1CC[C@@H]2C [I-272] | 7.9 | 5.7 |
| COC(=O)C1=CO[C@@H](OC(=O)NCc2nc3ccccc3[nH]2)[C@@H]2C(C)=CC[C@H]12 [I-131] | 7.2 | 19.5 |
| COC(=O)C1=COC[C@H]2[C@@H]1C[C@@H]1O[C@@]12COC(=O)NCCCl [I-291] | 44.5 | 7 |
